The text below walks through data of PubChem BioAssay AID588641 (Sanford-Burnham Center for Chemical Genomics, 2011).

The source made the active and inactive calls. No rule for the calls is given here.

The experiment addresses alkaline phosphatase, placental type (human). The experiment is described as follows: inhibitors of placental alkaline phosphatase – biochemical, human PLAP isozyme, set 2, selectivity assay for mouse IAP inhibitor project, SAR follow-up (AID 588641). The note with it: purified human placental alkaline phosphatase, enzyme activity.

For `O=C(CCNS(=O)(=O)c1ccc2[nH]c(=O)oc2c1)NCc1cccc(F)c1`, the IC50 – broadly, the midpoint of a concentration-inhibition curve – was > 100 µM (inactive). Under `CC(=NNC(=O)c1ccccc1OCCOc1ccccc1)c1ccccc1F` stands > 100 µM (inactive); under `O=C(N/N=C/c1c(F)cccc1Cl)c1cc(O)c(O)c(O)c1`, > 100 µM (inactive); under `Cc1ccc(NC(=O)CCNS(=O)(=O)c2ccc3c(c2)oc(=O)n3C)c(C)c1`, > 100 µM (inactive).

On to `CSc1cccc(NC(=O)C2CCCN(S(=O)(=O)c3ccc4c(c3)oc(=O)n4C)C2)c1` (stereo not given), for which the IC50 was > 100 µM (inactive).
